# Test results from patent US20260263468A1 (Fundación Instituto de Investigación Sanitaria Fundación …, priority 2023, published 2026).
# Values joined by “and” are separate entries in the source; they are usually repeats but may differ in a detail not shown here. Equal values may be shown once.
# B1: IL-6: pro-inflammatory cytokine used at 2.5 μg/ml on C2C12 (protein, UniProt P08505 25-211, looked up)
# Interleukin-6: FPTSQVRRGDFTEDTTPNRPVYTTSQVGGLITHVLWEIVEMRKELCNGNSDCMNNDDALAENNLKLPEIQRNDGCYQTGYNQEICLLKISSGLLEYHSYLEYMKNNLKDNKKDKARVLQRDTETLIHIFNQEVKDLHKIVLPTPISNALLTDKLESQKEWLRTKTIQFILKSLEEFLKVTLRSTRQT
# B2: INFγ: pro-inflammatory cytokine used at 1 μg/ml on C2C12 (protein, UniProt P01580 23-155, looked up)
# Interferon gamma: HGTVIESLESLNNYFNSSGIDVEEKSLFLDIWRNWQKDGDMKILQSQIISFYLRLFEVLKDNQAISNNISVIESHLITTFFSNSKAKKDAFMSIAKFEVNNPQVQRQAFNELIRVVHQLLPESSLRKRKRSRC
# Assays:
# C2C12 cells = assay: Cell proliferation assay (AlamarBlue); format: cell-based; details: 24 h after 2% HS addition, control 100±7.3%
# Method: C2C12 cells (American Type Culture Collection, ATCC, Manassas, VA, USA) were cultured in DMEM supplemented with 10% FBS and 1% penicillin-streptomycin. To induce myogenic differentiation, 70% confluence C2C12 cells were culture in DMEM containing 2% HS (horse serum). Cells were maintained in a humidified chamber at 37° C., in 95% air and 5% CO2. Media was replaced with fresh every 48h.
# C2C12 cells were plated in 96-well plates (Corning, Cultek, Spain) (12.500 cells/well). Cell proliferation was measured using AlamarBlue assay according to the manufacturer's instructions, at 24 and 48 h of myogenic differentiation.
# C2C12 [1] = assay: Nucleotide concentration by HPLC during C2C12 differentiation; format: cell-based
# Method: Supernatant and cell lysate are collected every day. Cells were lysated with a homemade buffer (1 mM phenylmethylsulfonyl fluoride, 1 mM protease inhibitor cocktail, 1 mM sodium orthovanadate, 1 mM sodium fluoride and 1 mM β-glicerophospate) and supernatant was used directly. A heat shock step was done at 98° C. for 2 min, and to avoid adenosine degradation 1 μM EHNA was added at the time of heating. All samples were centrifuged at 13000 g for 10 min at 4° C. and supernatants were collected and stored at −80° C. until use. Inosine, adenosine, AMP, ADP and ATP concentrations were determined with high performance liquid chromatography (HPLC) using a liquid chromatograph with a reversed phase column (Agilent 1100 Series Liquid Chromatography) and an UV detector set at 254 nm. Buffer composed of 0.1 mol/L KH2PO4 (pH 7.5) and 18% acetonitrile was run at 1.5 ml/min for 20 min. Compounds were identified and quantified by their retention times and peak areas of known standards, calibrated by spectrophotometry. […] The results have been corrected and expressed as mean±SEM. All results were calculated as a percentage of controls without differentiation state.
# C2C12 [2] = assay: Western blot of myogenesis markers during differentiation; format: cell-based
# Method: (§1) Cells were lysed with RIPA buffer and protein concentration was determined by BCA. […] Variations in intensity were expressed as % of basal (day 0) and expressed as mean±SEM. All results were calculated as a percentage of non-differentiated controls to minimize the intrinsic variation among different experiments.
# C2C12 [3] = assay: Western blot of adenosine receptors, P2X7 and Panx-1 during differentiation; format: cell-based
# Method: as §1
# The expression of adenosine receptors, P2X7 receptor and Panx-1 channel was analyzed during myoblast differentiation.
# C2C12 [4] = assay: cAMP concentration (ELISA); format: cell-based; details: myoblast, 1 μM, 5 minutes; control 0.58±0.13
# Method: CAMP concentration was measured using the colorimetric cAMP ELISA kit following manufacture protocol for acetylated cell lysates (Cell Biolabs, San Diego, USA). Absorbance was measured at 450 nm using a microplate reader Tecan Spark 20M.
# The CAMP signaling cascade has been linked to a delay in the onset of age-related muscle loss.
# C2C12 [5] = assay: Western blot of PKA isoforms, pCREB, EPAC1/2; format: cell-based
# Method: as §1
# To study the CAMP signaling pathway, we analyzed the expression of PKA on its three catalytic isoforms PKAα, PKAβ and PKAγ as well as EPAC1/2. […] Tenofovir reduced its phosphorylation (154±9% tenofovir vs 247±30% control at day 4, p<0.05, FIG. 3B).
# C2C12 [6] = assay: Western blot of phosphorylated AMPK; format: cell-based; details: 1 μM, day 4, vs basal
# Method: as §1
# We next studied if these changes in AMP/ATP ratio had any effect in AMPK activation.
# C2C12 [7] = assay: AMPK phosphorylation assay kit (short time points); format: cell-based; details: myoblast, 1 μM, 10 min after switching to 2% HS; control 1.97±0.17
# Method: Assay was performed with the AMPK phosphorilation assay kit (Abnova Corporation, Jhouzih St, Taiwan) as manufactor instructions and pAMPK was measured at λex/em 530/585 nm and 360/450 nm for total protein with Tecan Infinite.
# [8] = mice, tenofovir 75 mg/Kg/day; cited from earlier work
# C2C12 myobundles = assay: C2C12 3D myobundle with IL-6 ± dipyridamole; format: cell-based; details: IL-6 2.5 μg/ml ± dipyridamole 1 μM, 14 days; Sham 890±39
# Source text: C2C12 myobundles were fabricated following the protocol described by Bursac group (see references in ref. 44). Briefly, molds of polydimethylsiloxane (PDMS) designed for 12-well plates were created from Teflon masters with semicylindrical wells. These molds were sterilized, coated with 0.2% (w/v) Pluronic F-127 (Invitrogen) to prevent tissue adhesion, and paired with laser-cut Cerex frames (9×9 mm^2, 1-mm-wide rim) for myobundle attachment. The frames served as an anchor and guide during hydrogel compaction, ensuring uniaxial cell alignment. C2C12 cells were encapsulated in a hydrogel solution, including bovine fibrinogen (Sigma-Aldrich), matrigel (Corning), bovine thrombin (Sigma-Aldrich), and growth medium as concentration of bursac group indicates Referencias. The cell/hydrogel mixture was polymerized in the PDMS molds, and myobundles were cultured in a humidified chamber at 37° C., in 95% air and 5% CO2. After 4 days, the frames with myobundles were suspended in DM with treatments. DM and treatments are replaced every two days. GM and DM media contained 6-aminocaproic acid to reduce fibrinolysis. […] After the 14 days of treatment a bright-field photograph was taken to analyze the thickness of the fiber at its midpoint, and subsequently, they were embedded in OCT medium. […]
# C2C12 myoblast cell line = assay: Western blot of C2C12 under pro-inflammatory conditions with/without dipyridamole; details: for PAX7 expression (vs 100% basal): IL-6 2.5 μg/ml, INFγ 1 μg/ml or LPS 10 μg/ml ± dipyridamole 1 μM, control 64.7±5%; for PAX7 expression (vs 100% basal) / AMPK activation / CREB activation / MHC expression (vs 100% basal) / PKAα expression: day 4; for A2BR expression / AMPK activation / CREB activation / MHC expression (vs 100% basal): cytokine/LPS ± dipyridamole 1 μM; for AMPK activation: control 222.7±23.9%; for CREB activation: control 353.7±45.15%; for MHC expression (vs 100% basal): control 757.6±85.7%; for PKAα expression: control 213.9±21.6%
# Method: Western blot was performed as described above.
# Protein concentration was determined by BCA. 4 μg for cells and 40-50 μg for tissue samples of protein was subjected to 6-15% SDS-PAGE and transferred to a nitrocellulose membrane. Membranes were blocked with 3% BSA in Tris-buffered saline containing 0.1% Tween-20 (TBS-T). After that, the membranes were incubated overnight at 4° C. with the primary antibodies for A2A, A2B, MHC (Thermo Fisher Scientific, Waltham, USA), AMPK, pAMPK (Thr172), p21, p16 (Cell signaling, Danvers, EEUU) (1:1000 each) and Pax-7 (Developmental Studies Hybridoma Bank, Houston, EEUU) (1:500 each).
molecule,measurement,setting,value
C[C@H](Cn1cnc2c(N)ncnc21)OCP(=O)(O)O [tenofovir],Proliferation compared to control,C2C12 cells; 1 μM,63.3±5%
same,Proliferation compared to control,C2C12 cells; 10 μM,62.8±6.4%
same,Intracellular ATP,"C2C12 [1]; 1 μM each, day 1, control 4.93±0.02",11.56 ± 0.26 nM and 11.74 ± 0.08 nM
same,Intracellular AMP/ATP ratio,"C2C12 [1]; 1 μM each, day 3, control 1.88±0.12",0.62±0.03
same,Extracellular ATP,"C2C12 [1]; 1 μM each, day 4, control 14.7±0.5",10.67 ± 0.28 nM
same,Intracellular adenosine,"C2C12 [1]; 1 μM, day 4, control 10.87±0.73",did not change
same,Intracellular inosine,"C2C12 [1]; 1 μM, day 4, control 11.07±0.54",did not modulate
same,Intracellular AMP,"C2C12 [1]; 1 μM, day 4, control 12.10±0.73",6.33 ± 0.35 nM
same,Extracellular adenosine,"C2C12 [1]; 1 μM, day 4 of differentiation, control 11.6±0.81",6.65 ± 0.54 nM
same,MHC protein expression (% of basal),"C2C12 [2]; 1 μM each, day 1",1429±379% and 1153±131%
same,PAX7 protein expression (% of basal),"C2C12 [2]; 1 μM, day 1, control 315±58%",101±23%
same,MyoD protein expression (% of basal),"C2C12 [2]; 1 μM, day 2, control 182±8%",389±33%
same,Myf5 protein expression (% of basal),"C2C12 [2]; 1 μM, first 2 days of differentiation",142±23%
same,Adenosine A2B receptor protein expression (% of basal),"C2C12 [3]; 1 μM each, day 4",553±47%
same,A3 receptor protein expression,"C2C12 [3]; 1 μM, compared to control",did not change
same,P2X7 protein expression (% of basal),"C2C12 [3]; 1 μM, day 4",89±19%
same,cAMP levels,C2C12 [4],0.24±0.07
same,PKAα protein expression (% of basal),"C2C12 [5]; 1 μM each, day 4, control 292±65%",215±90% and 215.8±94.2%
same,pCREB (% of basal),"C2C12 [5]; 1 μM, day 4, control 247±30%",154±9%
same,EPAC2 protein expression,"C2C12 [5]; 1 μM, within differentiation",maintained the expression similar to basal levels
same,pAMPK (Western blot),C2C12 [6],1.15±0.05
same,AMPK activation,C2C12 [7],1.02±0.19
same,Body weight lost,[8],~10%
B1,Myobundle thickness,C2C12 myobundles,616.3±22.9 μm
same,PAX7 expression (vs 100% basal),C2C12 myoblast cell line,121±8%
same,A2BR expression,"C2C12 myoblast cell line; 24 h, control 112.9±4.7%",75.8±2.2%
same,A2BR expression,"C2C12 myoblast cell line; 4 days, control 172.7±12.6%",67.6±3%
same,AMPK activation,C2C12 myoblast cell line,80.9±5.8%
same,CREB activation,C2C12 myoblast cell line,163.4±19.26%
same,MHC expression (vs 100% basal),C2C12 myoblast cell line,127.7±15.8%
same,PKAα expression,C2C12 myoblast cell line,107±5.8%
B2,PAX7 expression (vs 100% basal),C2C12 myoblast cell line,114±11%
same,A2BR expression,"C2C12 myoblast cell line; 24 h, control 112.9±4.7%",69.3±1.9%
same,A2BR expression,"C2C12 myoblast cell line; 4 days, control 172.7±12.6%",66.03±20.3%
same,AMPK activation,C2C12 myoblast cell line,80.4±6.1%
same,CREB activation,C2C12 myoblast cell line,176.7±27.8%
same,MHC expression (vs 100% basal),C2C12 myoblast cell line,123.1±20.3%
same,PKAα expression,C2C12 myoblast cell line,101.7±3.7%
